This is an account of results in patent publication US9545392B2, “Carrier comprising a vitamin E derivative” (UCL BUSINESS PLC, priority 2007, dated 2017).

Series [1] is described as follows: In vivo labelling of retinal vasculature by alpha-bungarotoxin. The source says: The invention also provides alpha-bungarotoxin (αBT) for use in labelling the retinal vasculature of a subject. This is in vivo labelling. αBT is know to bind to nicotinic acetylcholine receptors (nAChRs) and is readily used to label the end plate of neuromuscular junctions ex vivo. It has not been applied to labelling in vivo due to it's potential neuromuscular inhibitory effects when used systemically. However, such problems are not seen when using it directly in the eye. The wall of the retinal vasculature, and in particular the arteries, is a muscular environment housing nAChRs. Therefore, αBT labels them specifically. This patterned labelling in the eye is something that is otherwise very difficult to achieve. Preferably, the αBT is administered directly to the retinal vasculature of the eye, for example, by intravitreal injection. Preferably, the αBT is labelled with an imaging moiety such as fluorescein.

The format of series [2] is in vivo. The following applies: rat, tail vein, 2 hours; 300 μl of 5% free or 1 ml of 0.2% encapsulated. The protocol: 300 μl of 5% fluorescein sodium or 1 ml of 0.2% encapsulated fluorescein sodium, were administered to the rat through the tail vain and the retina monitored. Free fluorescein was removed by use of ultracentrifugation and PD-10; columns as outlined earlier. After 2 hours; under general anaesthesia, the animals underwent fixation perfusion with 4% paraformaldehyde. Brains were stored in 4% paraformaldehyde overnight, following which 800 um slices were cut and examined under fluorescent confocal microscopy.
The images in FIG. 24 come from similar regions in the brain from an animal with intravenous encapsulated fluorescein sodium (A-B) compared to one with plain intravenous fluorescein sodium (C-D). Both fluorescence (A, C) and transmission (B, D) images are shown. […] This confirms the fact that encapsulation allows the fluorescein sodium to cross the BBB.
The appearance of fluorescent patches or “monofocal leakages” of sodium flourescein is similar to that that has been described when BBB disruption occurs in the brain, as discussed earlier (Natah, S. S. et al. J Appl Physiol 107: 1348-1356 2009).

The format of series [3] is in vivo. The following applies: rat, tail vein; 300 μl of 5% free or 1 ml of 0.2% encapsulated. As for the experimental part:
300 μl of 5% fluorescein sodium or 1 ml of 0.2% encapsulated fluorescein sodium, were administered to the rat through the tail vain and the retina monitored. Free fluorescein was removed by use of ultracentrifugation and PD-10 columns as outlined earlier.
It is important to highlight that the retinal blood vessels were not seen with the encapsulated material (A-C) as they are without (D-F), although there is a hint of arterial wall fluorescence in the encapsulated treated eye at 34 minutes (B). […] They were absent from the non-encapsulated eyes. These focal patches of fluorescence are believed to be intact liposomes containing fluorescein. […] The appearance, of fluorescent patches or “monofocal leakages” of sodium flourescein is similar to that that has been described when BBB disruption occurs in the brain (see FIG. 20 from Natah, S. S. et al. J Appl Physiol 107: 1348-1356 2009).

The format of series [4] is in vivo. The following applies: intravitreal injection, eyes imaged after 3 hours. As for the experimental part: To access the release of encapsulated material, liposomes containing encapsulated αBT and annexin V-776 were administered via Intravitreal injection and the eyes were imaged after 3 hours.

Regarding alpha-bungarotoxin [αBT], in series [1], the “labelling of retinal vessels” value is “specifically labels the arteries in the retina”.

`O=C1OC2(c3ccc(O)cc3Oc3cc(O)ccc32)c2ccccc21` [Fluorescein, fluorescein sodium]: in series [2], the “fluorescence in brain slices” value is “no signal at all”. In addition, the “crossing of the blood retinal barrier” value in series [3] was “unable to cross an intact blood retinal barrier and remains isolated to the vessels”.

In the case of “Annexin V-776: labelled annexin V, anionic phospholipid binding protein, given with liposomes”, the “release of cargo from liposomes” value in series [4] is listed as “successful release”.
